Legend:
human CCR6 [1] = biological target: T1, human CCR6 (Homo sapiens, UniProt P51684); assay: Human CCR6-CRE reporter assay; type: cell-based; design: The second construct contained the open reading frame of human CCR6 in the pUNO1 backbone; host or cells: 293FT cells; conditions: relative -Log IC50; 293FT cells transfected with human CCR6 and CRE-luciferase reporter; 6 μM Forskolin, 6 nM CCL20; 5 h
T1 sequence (P51684 1-374): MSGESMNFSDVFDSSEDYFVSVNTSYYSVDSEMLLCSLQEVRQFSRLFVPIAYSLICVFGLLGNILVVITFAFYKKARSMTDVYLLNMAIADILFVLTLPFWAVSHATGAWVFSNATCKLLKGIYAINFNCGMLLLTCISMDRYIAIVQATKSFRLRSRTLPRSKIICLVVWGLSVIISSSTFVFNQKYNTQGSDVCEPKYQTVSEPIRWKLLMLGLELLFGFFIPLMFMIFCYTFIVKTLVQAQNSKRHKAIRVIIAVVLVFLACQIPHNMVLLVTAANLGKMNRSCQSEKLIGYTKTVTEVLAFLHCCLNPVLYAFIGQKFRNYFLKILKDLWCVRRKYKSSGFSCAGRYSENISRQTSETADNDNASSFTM
Procedure, shortened: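 293FT cells transiently co-transfected with human CCR6 and a CRE-luc2P reporter, used 48 h later. Compounds incubated with cells in medium containing 6 μM Forskolin and 6 nM CCL20 (assay-medium levels), 0.1% DMSO final, 5 h at 37° C; luminescence read, relative −Log IC50 from four-parameter fit.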

human CCR6 [2] = biological target: T1, human CCR6; assay: CHO-K1 CCR6 chemotaxis assay towards CCL20; type: cell-based; conditions: relative -Log IC50; CHO-K1 cells overexpressing human CCR6; migration towards 100 ng/ml CCL20; 4 h
Description: CHO-K1 CCR6 Chemotaxis Assay Towards CCL20
Cells overexpressing human CCR6 were used in the chemotaxis assay (DiscoverX, cAMP Hunter™ CHO-K1 CCR6 Gi Cell Line). Growth medium of these cells consisted of DMEM/F12, non-essential Amino acids (1×NEAA, Gibco 11140050), 10% FBS and 1× pen/strep (Gibco 15140). For the chemotaxis assay, Corning Transwell plates were used with a pore size of 8 m (Corning 351164). Cells were harvested using trypsin and diluted to 4*10^6 cells/ml in chemotaxis medium (DMEM, 0.25% BSA, pen/strep). Compounds were four-fold serially diluted in DMSO. Further dilutions were made in chemotaxis medium. Cells were incubated with test compounds for 30 min at 37° C. prior to initiation of the assay (2*10^6 cells/ml). Final DMSO concentration in the assay was 0.2%. Wells of the Transwell plates were filled with 200 μl chemotaxis medium containing 100 ng/ml CCL20 (R&D systems 360-MP). 50 μl of the cell/compound suspension was added to the inserts of the Transwell plates (100,000 cells/insert). The Transwell plates were placed in an incubator at 37° C., 5% CO2 for 4 h. After 4 h, the number of migrated cells was quantified using CellTiter Glo (Promega). Percentage inhibition values were calculated based on the low and high signal obtained with 0.2% DMSO in chemotaxis medium without and with CCL20, respectively. The relative −Log IC50 was determined with GraphPad Prism 9 using a four-parameter dose-response model.

| IC50 (human CCR6 [1]) [µM] | IC50 (human CCR6 [2]) [µM] | Compound |
| --- | --- | --- |
| 0.0316 | 0.00501 | CC(C)c1nnc2ccc(-c3ccc(S(=O)(=O)N4CCC(Nc5ccc(S(F)(F)(F)(F)F)cc5)CC4)cc3)cn12 [Example 28, N-[4-(pentafluoro-λ^6-sulfanyl)phenyl]-1-{4-[3-(propan-2-yl)-[1,2,4]triazolo[4,3-a]pyridin-6-yl]benzenesulfonyl}piperidin-4-amine] |
| 0.316 | 0.794 | CNC(=O)c1ccc(-c2ccc(S(=N)(=O)[C@H]3CC[C@H](Nc4ccc(S(F)(F)(F)(F)F)cc4)CC3)cc2)cn1 (stereo partly drawn) [Example 101, N-methyl-5-(4-{[trans-4-{[4-(pentafluoro-λ^6-sulfanyl)phenyl]Amino}cyclohexyl]sulfonimidoyl}phenyl)pyridine-2-carboxamide] |
| 0.501 | 0.794 | O=S(=O)(c1ccc(-c2ccc3nccn3c2)cc1F)N1CCC(Nc2ccc(S(F)(F)(F)(F)F)cc2)CC1 [Example 74, 1-(2-fluoro-4-{imidazo[1,2-a]pyridin-6-yl}benzenesulfonyl)-N-[4-(pentafluoro-λ^6-sulfanyl)phenyl]piperidin-4-amine] |
| 0.0631 | 0.00398 | NC(=O)c1n[nH]c2ccc(-c3ccc(S(=O)(=O)[C@H]4CC[C@H](Nc5ccc(S(F)(F)(F)(F)F)cc5)CC4)cc3)cc12 [Example 37, 5-(4-{[trans-4-{[4-(pentafluoro-λ^6-sulfanyl)phenyl]Amino}cyclohexyl]sulfonyl}phenyl)-1H-indazole-3-carboxamide] |
| 0.158 | 0.0316 | O=C1NCCCn2cc(-c3ccc(S(=O)(=O)[C@H]4CC[C@H](Nc5ccc(S(F)(F)(F)(F)F)cc5)CC4)cc3)cc21 [Example 155, 8-(4-{[trans-4-{[4-(pentafluoro-λ^6-sulfanyl)phenyl]amino}cyclohexyl]sulfonyl}phenyl)-1H,2H,3H,4H,5H-pyrrolo[1,2-a][1,4]diazepin-1-one] |
| 0.0794 | 0.00251 | NC(=O)c1cc(-c2ccc(S(=O)(=O)[C@H]3CC[C@H](Nc4ccc(S(F)(F)(F)(F)F)cc4)CC3)cc2)cn2ccnc12 [Example 157, 6-(4-{[trans-4-{[4-(pentafluoro-λ^6-sulfanyl)phenyl]amino}cyclohexyl]sulfonyl}phenyl)imidazo[1,2-a]pyridine-8-carboxamide] |
| 0.251 | 0.158 | CNC(=O)c1ccc(-c2ccc(S(=N)(=O)N3CCC(Nc4ccc(S(F)(F)(F)(F)F)cc4)CC3)cc2)cn1 (stereo not drawn) [Example 121, N-methyl-5-{4-[(4-{[4-(pentafluoro-λ^6-sulfanyl)phenyl]Amino}piperidin-1-yl)sulfonimidoyl]phenyl}pyridine-2-carboxamide] |
| 0.2 | 0.0158 | O=C1NCc2cc(-c3ccc(S(=O)(=O)[C@H]4CC[C@H](Nc5ccc(S(F)(F)(F)(F)F)cc5)CC4)cc3)ccc21 [Example 58, 5-(4-{[trans-4-{[4-(pentafluoro-λ^6-sulfanyl)phenyl]Amino}cyclohexyl]sulfonyl}phenyl)-2,3-dihydro-1H-isoindol-1-one] |
| 0.158 | 0.00794 | O=C1NCCc2ccc(-c3ccc(S(=O)(=O)[C@H]4CC[C@H](Nc5ccc(S(F)(F)(F)(F)F)cc5)CC4)cc3)cc21 [Example 60, 7-(4-{[trans-4-{[4-(pentafluoro-λ^6-sulfanyl)phenyl]Amino}cyclohexyl]sulfonyl}phenyl)-1,2,3,4-tetrahydroisoquinolin-1-one] |
| 0.316 | 0.0794 | N=S(=O)(c1ccc(-c2ccc3nnc(C(F)F)n3c2)cc1)[C@H]1CC[C@H](Nc2ccc(S(F)(F)(F)(F)F)cc2)CC1 (stereo partly drawn) [Example 169, {4-[3-(difluoromethyl)-[1,2,4]triazolo[4,3-a]pyridin-6-yl]phenyl}[trans-4-{[4-(pentafluoro-λ^6-sulfanyl)phenyl]amino}cyclohexyl](imino)-λ^6-sulfanone] |
| 0.398 | 0.631 | Cc1nnc2ccc(-c3ccc(S(=N)(=O)[C@H]4CC[C@H](Nc5ccc(S(F)(F)(F)(F)F)cc5)CC4)cc3)cn12 (stereo partly drawn) [Example 105, (4-{3-methyl-[1,2,4]triazolo[4,3-a]pyridin-6-yl}phenyl)[trans-4-{[4-(pentafluoro-λ^6-sulfanyl)phenyl]Amino}cyclohexyl](imino)-λ^6-sulfanone] |
| 0.794 | 0.794 | Cc1cnc2ccc(-c3ccc(S(=O)(=O)N4CCC(Nc5ccc(S(F)(F)(F)(F)F)cc5)CC4)cn3)cn12 [Example 69, 1-[(6-{3-methylimidazo[1,2-a]pyridin-6-yl}pyridin-3-yl)sulfonyl]-N-[4-(pentafluoro-λ^6-sulfanyl)phenyl]piperidin-4-amine] |
| 0.126 | 0.126 | N#Cc1c[nH]c2ccc(-c3ccc(S(=N)(=O)[C@H]4CC[C@H](Nc5ccc(S(F)(F)(F)(F)F)cc5)CC4)cc3)cc12 (single isomer, unassigned; (+)) [Example 126, (+)-5-(4-{[trans-4-{[4-(pentafluoro-λ^6-sulfanyl)phenyl]Amino}cyclohexyl]sulfonimidoyl}phenyl)-1H-indole-3-carbonitrile] |
| 0.0794 | 0.398 | CC(C)c1cnc2ccc(-c3ccc(S(=N)(=O)[C@H]4CC[C@H](Nc5ccc(S(F)(F)(F)(F)F)cc5)CC4)cc3)cn12 (relative stereo) [Example 118, {4-[3-(propan-2-yl)imidazo[1,2-a]pyridin-6-yl]phenyl}[trans-4-{[4-(pentafluoro-λ^6-sulfanyl)phenyl]Amino}cyclohexyl](imino)-λ^6-sulfanone] |
| 0.251 | 0.0794 | NC(=O)c1nnc2ccc(-c3ccc(S(=O)(=O)[C@H]4CC[C@H](Nc5ccc(S(F)(F)(F)(F)F)cc5)CC4)cc3)cn12 [Example 39, 6-(4-{[trans-4-{[4-(pentafluoro-λ^6-sulfanyl)phenyl]Amino}cyclohexyl]sulfonyl}phenyl)-[1,2,4]triazolo[4,3-a]pyridine-3-carboxamide] |
| 0.0631 | 0.02 | CNC(=O)c1cc(-c2ccc(S(=O)(=O)N3CCC(Nc4ccc(S(F)(F)(F)(F)F)cc4)CC3)cc2)ccc1F [Example 138, 4-fluoro-N-methyl-4′-[(4-{[4-(pentafluoro-λ^6-sulfanyl)phenyl]amino}piperidin-1-yl)sulfonyl]-[1,1′-biphenyl]-3-carboxamide] |
| 0.1 | 0.01 | NC(=O)c1cc(-c2ccc(S(=O)(=O)[C@H]3CC[C@H](Nc4ccc(S(F)(F)(F)(F)F)cc4)CC3)cc2)co1 [Example 158, 4-(4-{[trans-4-{[4-(pentafluoro-λ^6-sulfanyl)phenyl]amino}cyclohexyl]sulfonyl}phenyl)furan-2-carboxamide] |
| 0.251 | 0.501 | CNC(=O)c1ccc(-c2ccc(S(=N)(=O)[C@H]3CC[C@H](Nc4ccc(S(F)(F)(F)(F)F)cc4)CC3)cc2)cc1 (stereo partly drawn) [Example 95, N-methyl-4′-{[trans-4-{[4-(pentafluoro-λ^6-sulfanyl)phenyl]Amino}cyclohexyl]sulfonimidoyl}-[1,1′-biphenyl]-4-carboxamide] |
| 0.0398 | 0.1 | CNC(=O)c1ccc(-c2ccc(S(=O)(=O)[C@H]3CC[C@H](Nc4ccc(S(F)(F)(F)(F)F)cc4)CC3)cc2)cn1 [Example 22, N-methyl-5-(4-{[trans-4-{[4-(pentafluoro-λ^6-sulfanyl)phenyl]Amino}cyclohexyl]sulfonyl}phenyl)pyridine-2-carboxamide] |
| 0.794 | 0.501 | N#Cc1cnc2ccc(-c3ccc(S(=O)(=O)N4CCC(Nc5ccc(S(F)(F)(F)(F)F)cc5)CC4)cn3)cn12 [Example 76, 6-{5-[(4-{[4-(pentafluoro-λ^6-sulfanyl)phenyl]Amino}piperidin-1-yl)sulfonyl]pyridin-2-yl}imidazo[1,2-a]pyridine-3-carbonitrile] |
| 0.251 | 0.0158 | N#Cc1nnc2ccc(-c3ccc(S(=O)(=O)[C@H]4CC[C@H](Nc5ccc(S(F)(F)(F)(F)F)cc5)CC4)cc3)cn12 [Example 42, 6-(4-{[trans-4-{[4-(pentafluoro-λ^6-sulfanyl)phenyl]Amino}cyclohexyl]sulfonyl}phenyl)-[1,2,4]triazolo[4,3-a]pyridine-3-carbonitrile] |

Source: patent publication US20260070902A1, “SULFONYL DERIVATIVES AS CCR6 INHIBITORS” (Hoffmann-La Roche Inc., priority 2022, published 2026)
